{"source": "PubChem BioAssay AID248", "about": "(DTP/NCI, 2004)", "system": "L1210 leukemia ip in BDF1 mice, survival T/C", "assay": "NCI In Vivo Anticancer Drug Screen. Data for tumor model L1210 Leukemia (intraperitoneal) in B6D2F1 (BDF1) mice", "conditions": "higher = longer survival", "outline": "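Transplantable tumor model; survival measured in treated vs vehicle control mice. Value = treated/control.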", "note": "Inconclusive results and toxic doses are left out."}
{"smiles": "Cc1cc(NCCCCCCNc2cc(C)nc3ccc(N)cc23)c2cc(N)ccc2n1", "values": [{"measurement": "T/C", "setting": "endpoint: mean survival time, dose: 4.7 mg/kg/injection, schedule: Q01DX009 (ip), vehicle: saline with Tween-80", "value": "117 % of control"}, {"measurement": "T/C", "setting": "endpoint: mean survival time, dose: 16.5 mg/kg/injection, schedule: Q01DX009 (ip), vehicle: saline", "value": "118 % of control"}, {"measurement": "T/C", "setting": "endpoint: mean survival time, dose: 18.75 mg/kg/injection, schedule: Q01DX009 (ip), vehicle: saline with Tween-80", "value": "152 % of control"}, {"measurement": "T/C", "setting": "endpoint: mean survival time, dose: 37.5 mg/kg/injection, schedule: Q01DX009 (ip), vehicle: saline with Tween-80", "value": "176 % of control"}, {"measurement": "T/C", "setting": "endpoint: mean survival time, dose: 37.5 mg/kg/injection, schedule: Q01DX009 (ip), vehicle: saline", "value": "164 % of control"}, {"measurement": "T/C", "setting": "endpoint: mean survival time, dose: 75.0 mg/kg/injection, schedule: Q01DX009 (ip), vehicle: acetone", "value": "160 % of control"}, {"measurement": "T/C", "setting": "endpoint: mean survival time, dose: 75.0 mg/kg/injection, schedule: Q01DX009 (ip), vehicle: saline with Tween-80", "value": "150 % of control"}, {"measurement": "T/C", "setting": "endpoint: mean survival time, dose: 75.0 mg/kg/injection, schedule: Q01DX009 (ip), vehicle: saline", "value": "182 % of control"}, {"measurement": "T/C", "setting": "endpoint: mean survival time, dose: 150.0 mg/kg/injection, schedule: Q01DX009 (ip), vehicle: acetone", "value": "161 % of control"}, {"measurement": "T/C", "setting": "endpoint: mean survival time, dose: 150.0 mg/kg/injection, schedule: Q01DX009 (ip), vehicle: saline with Tween-80", "value": "102 % of control"}, {"measurement": "T/C", "setting": "endpoint: mean survival time, dose: 180.0 mg/kg/injection, schedule: Q04DX003 (ip), vehicle: Klucel (hydroxypropylcellulose) (HPC)", "value": "160 % of control"}, {"measurement": "T/C", "setting": "endpoint: mean survival time, dose: 180.0 mg/kg/injection, schedule: Q04DX003 (ip), vehicle: saline with Tween-80", "value": "152 % of control"}, {"measurement": "T/C", "setting": "endpoint: mean survival time, dose: 266.0 mg/kg/injection, schedule: Q04DX003 (ip), vehicle: saline with Tween-80", "value": "111 % of control"}, {"measurement": "T/C", "setting": "endpoint: mean survival time, dose: 300.0 mg/kg/injection, schedule: Q01DX009 (ip), vehicle: saline with Tween-80", "value": "94 % of control"}, {"measurement": "T/C", "setting": "endpoint: mean survival time, dose: 400.0 mg/kg/injection, schedule: Q04DX003 (ip), vehicle: Klucel (hydroxypropylcellulose) (HPC)", "value": "172 % of control"}, {"measurement": "T/C", "setting": "endpoint: mean survival time, dose: 600.0 mg/kg/injection, schedule: Q04DX003 (ip), vehicle: Klucel (hydroxypropylcellulose) (HPC)", "value": "197 % of control"}, {"measurement": "T/C", "setting": "endpoint: mean survival time, dose: 600.0 mg/kg/injection, schedule: Q04DX003 (ip), vehicle: saline with Tween-80", "value": "198 % of control"}, {"measurement": "T/C", "setting": "endpoint: median survival time, dose: 4.0 mg/kg/injection, schedule: Q01DX001 (ip), vehicle: lactic acid", "value": "101 % of control"}, {"measurement": "T/C", "setting": "endpoint: median survival time, dose: 8.0 mg/kg/injection, schedule: Q01DX001 (ip), vehicle: lactic acid", "value": "100 % of control"}, {"measurement": "T/C", "setting": "endpoint: median survival time, dose: 16.0 mg/kg/injection, schedule: Q01DX001 (ip), vehicle: lactic acid", "value": "103 % of control"}, {"measurement": "T/C", "setting": "endpoint: median survival time, dose: 16.0 mg/kg/injection, schedule: Q01DX001 (oral), vehicle: citric acid", "value": "97 % of control"}, {"measurement": "T/C", "setting": "endpoint: median survival time, dose: 16.0 mg/kg/injection, schedule: Q01DX001 (oral), vehicle: lactic acid", "value": "100 % of control"}, {"measurement": "T/C", "setting": "endpoint: median survival time, dose: 32.0 mg/kg/injection, schedule: Q01DX001 (ip), vehicle: lactic acid", "value": "111 % of control"}, {"measurement": "T/C", "setting": "endpoint: median survival time, dose: 32.0 mg/kg/injection, schedule: Q01DX001 (oral), vehicle: citric acid", "value": "103 % of control"}, {"measurement": "T/C", "setting": "endpoint: median survival time, dose: 32.0 mg/kg/injection, schedule: Q01DX001 (oral), vehicle: lactic acid", "value": "100 % of control"}, {"measurement": "T/C", "setting": "endpoint: median survival time, dose: 64.0 mg/kg/injection, schedule: Q01DX001 (ip), vehicle: Klucel (hydroxypropylcellulose) (HPC)", "value": "120 % of control"}, {"measurement": "T/C", "setting": "endpoint: median survival time, dose: 64.0 mg/kg/injection, schedule: Q01DX001 (oral), vehicle: citric acid", "value": "102 % of control"}, {"measurement": "T/C", "setting": "endpoint: median survival time, dose: 64.0 mg/kg/injection, schedule: Q01DX001 (oral), vehicle: lactic acid", "value": "103 % of control"}, {"measurement": "T/C", "setting": "endpoint: median survival time, dose: 128.0 mg/kg/injection, schedule: Q01DX001 (ip), vehicle: Klucel (hydroxypropylcellulose) (HPC)", "value": "153 % of control"}, {"measurement": "T/C", "setting": "endpoint: median survival time, dose: 128.0 mg/kg/injection, schedule: Q01DX001 (oral), vehicle: citric acid", "value": "97 % of control"}, {"measurement": "T/C", "setting": "endpoint: median survival time, dose: 128.0 mg/kg/injection, schedule: Q01DX001 (oral), vehicle: lactic acid", "value": "95 % of control"}, {"measurement": "T/C", "setting": "endpoint: median survival time, dose: 256.0 mg/kg/injection, schedule: Q01DX001 (ip), vehicle: Klucel (hydroxypropylcellulose) (HPC)", "value": "175 % of control"}, {"measurement": "T/C", "setting": "endpoint: median survival time, dose: 256.0 mg/kg/injection, schedule: Q01DX001 (oral), vehicle: citric acid", "value": "87 % of control"}, {"measurement": "T/C", "setting": "endpoint: median survival time, dose: 256.0 mg/kg/injection, schedule: Q01DX001 (oral), vehicle: lactic acid", "value": "94 % of control"}, {"measurement": "T/C", "setting": "endpoint: median survival time, dose: 512.0 mg/kg/injection, schedule: Q01DX001 (ip), vehicle: Klucel (hydroxypropylcellulose) (HPC)", "value": "180 % of control"}]}
{"smiles": "Cc1ccccc1-c1c2ccccc2c2ccccc2[n+]1[O-]", "values": [{"measurement": "T/C", "setting": "endpoint: mean survival time, dose: 50.0 mg/kg/injection, schedule: Q01DX009 (ip), vehicle: Klucel (hydroxypropylcellulose) (HPC)", "value": "101 % of control"}, {"measurement": "T/C", "setting": "endpoint: mean survival time, dose: 100.0 mg/kg/injection, schedule: Q01DX009 (ip), vehicle: Klucel (hydroxypropylcellulose) (HPC)", "value": "101 % of control"}, {"measurement": "T/C", "setting": "endpoint: mean survival time, dose: 200.0 mg/kg/injection, schedule: Q01DX009 (ip), vehicle: Klucel (hydroxypropylcellulose) (HPC)", "value": "108 % of control"}]}
